Test results reported in the supplement of paper PMC11451515.

Assays:
Conditions in all cases: 48 h
[1] = tested on: P12-Ichikawa; test: AUC of viability dose-response curve (% viability x log10 dose units); higher = less sensitive
Method in brief: (§1)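 Library compounds in DMSO were applied for 48 h at 37°C at 11 threefold doses (47 μM to 0.79 nM) to medium-adapted leukemia cells in 1536-well plates holding 500 or 1000 cells/well. Luminescence from CellTiter-Glo One was normalised plate by plate against DMSO and cell-free wells. Area under the curve came from trapezoidal integration of a log-logistic fit, after scaling curves that rose above full viability and discarding those that failed quality control. The fit had four parameters and used log10 doses.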

[2] = tested on: NOMO1; test: as above
Method in brief: as §1

[3] = tested on: SEM cells; test: as above
Method in brief: as §1

[4] = tested on: P12-Ichikawa; test: cell viability relative to DMSO control; higher = less cytotoxic
Method in brief: (§2)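 Before seeding, each leukemia line was adapted for at least four passages in each medium. NOMO1 or SEM cells (500 cells/well) and P12-Ichikawa cells (1000 cells/well) went into 1536-well plates at 5 μl, then received library compounds in DMSO by pin dosing across 11 threefold concentrations, 47 μM to 0.79 nM. Readout was CellTiter-Glo One luminescence after 48 h at 37°C, and viability is given as a per-plate percentage of DMSO wells, with cell-free wells as background.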

[5] = tested on: NOMO1; test: as above
Method in brief: as §2

[6] = tested on: SEM cells; test: as above
Method in brief: as §2

CCOC(=O)\C1=C\[C@]2(CC)CCCN3CCC4=C([C@H]23)[N]1C5=C4C=CC=C5
AUC of viability dose-response curve
Conditions	[1]	[2]	[3]
HPLM + 10% dialyzed FBS	469	464	464
RPMI 5 mM glucose + 10% FBS	470	464	469
RPMI 5 mM glucose + 10% dialyzed FBS	468	466	476

cell viability [%]
Conditions	[4]	[5]	[6]
HPLM + 10% dialyzed FBS, 0.000781 µM	98.7	104	71.6
HPLM + 10% dialyzed FBS, 0.00234 µM	106	118	100
HPLM + 10% dialyzed FBS, 0.00702 µM	107	122	87.6
HPLM + 10% dialyzed FBS, 0.0211 µM	104	124	111
HPLM + 10% dialyzed FBS, 0.0632 µM	111	125	118
HPLM + 10% dialyzed FBS, 0.19 µM	105	126	103
HPLM + 10% dialyzed FBS, 0.569 µM	110	131	104
HPLM + 10% dialyzed FBS, 1.71 µM	102	123	111
HPLM + 10% dialyzed FBS, 5.12 µM	115	124	114
HPLM + 10% dialyzed FBS, 15.4 µM	108	126	97.7
HPLM + 10% dialyzed FBS, 46.1 µM	101	54.5	80.7
RPMI 5 mM glucose + 10% FBS, 0.000781 µM	99.6	95.3	103
RPMI 5 mM glucose + 10% FBS, 0.00234 µM	118	103	104
RPMI 5 mM glucose + 10% FBS, 0.00702 µM	109	113	111
RPMI 5 mM glucose + 10% FBS, 0.0211 µM	110	113	114
RPMI 5 mM glucose + 10% FBS, 0.0632 µM	123	123	121
RPMI 5 mM glucose + 10% FBS, 0.19 µM	111	120	112
RPMI 5 mM glucose + 10% FBS, 0.569 µM	109	135	110
RPMI 5 mM glucose + 10% FBS, 1.71 µM	116	113	108
RPMI 5 mM glucose + 10% FBS, 5.12 µM	111	102	109
RPMI 5 mM glucose + 10% FBS, 15.4 µM	114	111	107
RPMI 5 mM glucose + 10% FBS, 46.1 µM	79.6	57.7	77.1
RPMI 5 mM glucose + 10% dialyzed FBS, 0.000781 µM	89.5	91.8	93.7
RPMI 5 mM glucose + 10% dialyzed FBS, 0.00234 µM	106	105	111
RPMI 5 mM glucose + 10% dialyzed FBS, 0.00702 µM	109	118	112
RPMI 5 mM glucose + 10% dialyzed FBS, 0.0211 µM	104	122	108
RPMI 5 mM glucose + 10% dialyzed FBS, 0.0632 µM	107	108	116
RPMI 5 mM glucose + 10% dialyzed FBS, 0.19 µM	108	113	124
RPMI 5 mM glucose + 10% dialyzed FBS, 0.569 µM	113	119	126
RPMI 5 mM glucose + 10% dialyzed FBS, 1.71 µM	105	110	108
RPMI 5 mM glucose + 10% dialyzed FBS, 5.12 µM	105	108	118
RPMI 5 mM glucose + 10% dialyzed FBS, 15.4 µM	109	105	105
RPMI 5 mM glucose + 10% dialyzed FBS, 46.1 µM	65.7	70.5	94.7

C[N]1N=C(C)C2=C1OC(=C(/C#N)C2C3=CC=C(C=C3)C(F)(F)F)/N (stereo not given)
AUC of viability dose-response curve
Conditions	HPLM + 10% dialyzed FBS	RPMI 5 mM glucose + 10% FBS	RPMI 5 mM glucose + 10% dialyzed FBS
[1]	457	467	454
[3]	467	438	439

Cc1ccccc1C(=O)Nc1ccc(C(=O)N2CCCC(O)c3cc(Cl)ccc32)c(C)c1 (stereo not given)
AUC of viability dose-response curve
Conditions	[1]	[2]	[3]
HPLM + 10% dialyzed FBS	461	452	460
RPMI 5 mM glucose + 10% FBS	462	471	455
RPMI 5 mM glucose + 10% dialyzed FBS	469	471	446

cell viability [%]
Conditions	[4]	[5]	[6]
HPLM + 10% dialyzed FBS, 0.000781 µM	116	129	109
HPLM + 10% dialyzed FBS, 0.00234 µM	117	125	97.2
HPLM + 10% dialyzed FBS, 0.00702 µM	120	123	97.9
HPLM + 10% dialyzed FBS, 0.0211 µM	122	141	112
HPLM + 10% dialyzed FBS, 0.0632 µM	127	139	113
HPLM + 10% dialyzed FBS, 0.19 µM	135	121	117
HPLM + 10% dialyzed FBS, 0.569 µM	131	143	131
HPLM + 10% dialyzed FBS, 1.71 µM	136	163	42.2
HPLM + 10% dialyzed FBS, 5.12 µM	129	147	108
HPLM + 10% dialyzed FBS, 15.4 µM	127	125	127
HPLM + 10% dialyzed FBS, 46.1 µM	124	137	121
RPMI 5 mM glucose + 10% FBS, 0.000781 µM	–	–	122
RPMI 5 mM glucose + 10% FBS, 0.00234 µM	–	–	109
RPMI 5 mM glucose + 10% FBS, 0.00702 µM	–	–	123
RPMI 5 mM glucose + 10% FBS, 0.0211 µM	–	–	136
RPMI 5 mM glucose + 10% FBS, 0.0632 µM	–	–	141
RPMI 5 mM glucose + 10% FBS, 0.19 µM	–	–	127
RPMI 5 mM glucose + 10% FBS, 0.569 µM	–	–	137
RPMI 5 mM glucose + 10% FBS, 1.71 µM	–	–	32.9
RPMI 5 mM glucose + 10% FBS, 5.12 µM	–	–	140
RPMI 5 mM glucose + 10% FBS, 15.4 µM	–	–	151
RPMI 5 mM glucose + 10% FBS, 46.1 µM	–	–	146
RPMI 5 mM glucose + 10% dialyzed FBS, 0.000781 µM	–	–	103
RPMI 5 mM glucose + 10% dialyzed FBS, 0.00234 µM	–	–	116
RPMI 5 mM glucose + 10% dialyzed FBS, 0.00702 µM	–	–	112
RPMI 5 mM glucose + 10% dialyzed FBS, 0.0211 µM	–	–	140
RPMI 5 mM glucose + 10% dialyzed FBS, 0.0632 µM	–	–	132
RPMI 5 mM glucose + 10% dialyzed FBS, 0.19 µM	–	–	136
RPMI 5 mM glucose + 10% dialyzed FBS, 0.569 µM	–	–	149
RPMI 5 mM glucose + 10% dialyzed FBS, 1.71 µM	–	–	56.3
RPMI 5 mM glucose + 10% dialyzed FBS, 5.12 µM	–	–	146
RPMI 5 mM glucose + 10% dialyzed FBS, 15.4 µM	–	–	140
RPMI 5 mM glucose + 10% dialyzed FBS, 46.1 µM	–	–	133

CC(C)CN(C[C@@H](O)[C@H](Cc1ccccc1)NC(=O)O[C@H]1CCOC1)[S+](=O)([O-])c1ccc(N)cc1
AUC of viability dose-response curve
Conditions	[1]	[2]	[3]
HPLM + 10% dialyzed FBS	396	440	410
RPMI 5 mM glucose + 10% FBS	382	453	369
RPMI 5 mM glucose + 10% dialyzed FBS	362	443	365

CNc1nc(Nc2cnn([C@H]3CCN(C4COC4)C[C@@H]3F)c2Cl)ncc1C(F)(F)F
AUC of viability dose-response curve
Conditions	[1]	[2]	[3]
HPLM + 10% dialyzed FBS	368	316	388
RPMI 5 mM glucose + 10% FBS	400	360	276
RPMI 5 mM glucose + 10% dialyzed FBS	397	391	363

cell viability [%]
Conditions	[4]	[5]	[6]
HPLM + 10% dialyzed FBS, 0.000781 µM	91	105	96
HPLM + 10% dialyzed FBS, 0.00234 µM	100	105	89.1
HPLM + 10% dialyzed FBS, 0.00702 µM	108	115	97.7
HPLM + 10% dialyzed FBS, 0.0211 µM	108	116	103
HPLM + 10% dialyzed FBS, 0.0632 µM	102	120	109
HPLM + 10% dialyzed FBS, 0.19 µM	92.9	36.8	105
HPLM + 10% dialyzed FBS, 0.569 µM	98.5	82.4	112
HPLM + 10% dialyzed FBS, 1.71 µM	53.3	35.6	93.1
HPLM + 10% dialyzed FBS, 5.12 µM	24.9	39.6	37.7
HPLM + 10% dialyzed FBS, 15.4 µM	30	36.5	20.9
HPLM + 10% dialyzed FBS, 46.1 µM	28	29.5	26.5
RPMI 5 mM glucose + 10% FBS, 0.000781 µM	93.9	97.2	103
RPMI 5 mM glucose + 10% FBS, 0.00234 µM	106	109	123
RPMI 5 mM glucose + 10% FBS, 0.00702 µM	99.6	110	108
RPMI 5 mM glucose + 10% FBS, 0.0211 µM	106	118	112
RPMI 5 mM glucose + 10% FBS, 0.0632 µM	115	105	85.3
RPMI 5 mM glucose + 10% FBS, 0.19 µM	112	107	55.7
RPMI 5 mM glucose + 10% FBS, 0.569 µM	115	115	65.5
RPMI 5 mM glucose + 10% FBS, 1.71 µM	99.1	65.4	20.1
RPMI 5 mM glucose + 10% FBS, 5.12 µM	54	19.3	18.9
RPMI 5 mM glucose + 10% FBS, 15.4 µM	22.2	19.6	16.1
RPMI 5 mM glucose + 10% FBS, 46.1 µM	39.2	18	17.6
RPMI 5 mM glucose + 10% dialyzed FBS, 0.000781 µM	100	98.8	101
RPMI 5 mM glucose + 10% dialyzed FBS, 0.00234 µM	103	110	106
RPMI 5 mM glucose + 10% dialyzed FBS, 0.00702 µM	110	108	112
RPMI 5 mM glucose + 10% dialyzed FBS, 0.0211 µM	120	107	116
RPMI 5 mM glucose + 10% dialyzed FBS, 0.0632 µM	115	118	126
RPMI 5 mM glucose + 10% dialyzed FBS, 0.19 µM	111	127	106
RPMI 5 mM glucose + 10% dialyzed FBS, 0.569 µM	114	103	106
RPMI 5 mM glucose + 10% dialyzed FBS, 1.71 µM	93.1	126	73.6
RPMI 5 mM glucose + 10% dialyzed FBS, 5.12 µM	54.3	39.6	32
RPMI 5 mM glucose + 10% dialyzed FBS, 15.4 µM	34.8	23.6	17.6
RPMI 5 mM glucose + 10% dialyzed FBS, 46.1 µM	38.1	26.5	17.1
